Laboratory results reported in ChEMBL document CHEMBL3576778, “Structure-Activity Relationship Studies of a Series of Semisynthetic Lipopeptides Leading to the Discovery of Surotomycin, a Novel Cyclic Lipopeptide Being Developed for the Treatment of Clostridium difficile-Associated Diarrhea” (J Med Chem, 2015).

What was measured:
Type in all cases: functional
Staphylococcus aureus [1] = assay: Antimicrobial activity against daptomycin-non-susceptible Staphylococcus aureus 42 incubated anaerobically at 37 degC for 48 hrs by agar dilution method; details: Staphylococcus aureus, 42, 48 h
Staphylococcus aureus [2] = assay: Antimicrobial activity against daptomycin-non-susceptible Staphylococcus aureus 5004 incubated anaerobically at 37 degC for 48 hrs by agar dilution method; details: Staphylococcus aureus, 5004, 48 h
Prevotella sp. = assay: Toxicity against Prevotella spp. assessed as inhibition of microbe growth
Clostridioides difficile [3] = assay: Antimicrobial activity against metronidazole-resistant Clostridium difficile
Staphylococcus aureus [4] = assay: Antimicrobial activity against daptomycin-non-susceptible Staphylococcus aureus 5003 incubated anaerobically at 37 degC for 48 hrs by agar dilution method; details: Staphylococcus aureus, 5003, 48 h
Staphylococcus aureus [5] = assay: Antimicrobial activity against daptomycin-non-susceptible Staphylococcus aureus 5063 incubated anaerobically at 37 degC for 48 hrs by agar dilution method; details: Staphylococcus aureus, 5063, 48 h
Staphylococcus aureus [6] = assay: Potency index, ratio of MIC for daptomycin to MIC for test compound against daptomycin-non-susceptible Staphylococcus aureus 5076 incubated anaerobically at 37 degC for 48 hrs by agar dilution method
Staphylococcus aureus [7] = assay: Potency index, ratio of MIC for daptomycin to MIC for test compound against daptomycin-non-susceptible Staphylococcus aureus 5016 incubated anaerobically at 37 degC for 48 hrs by agar dilution method
Staphylococcus aureus [8] = assay: Potency index, ratio of MIC for daptomycin to MIC for test compound against daptomycin-non-susceptible Staphylococcus aureus 5030 incubated anaerobically at 37 degC for 48 hrs by agar dilution method
Staphylococcus aureus [9] = assay: Antimicrobial activity against daptomycin-non-susceptible Staphylococcus aureus 278 incubated anaerobically at 37 degC for 48 hrs by agar dilution method; details: Staphylococcus aureus, 278, 48 h
Staphylococcus aureus [10] = assay: Potency index, ratio of MIC for daptomycin to MIC for test compound against daptomycin-non-susceptible Staphylococcus aureus 5004 incubated anaerobically at 37 degC for 48 hrs by agar dilution method
Clostridioides difficile [11] = assay: Antimicrobial activity against vancomycin-resistant Clostridium difficile
Staphylococcus aureus [12] = assay: Antimicrobial activity against daptomycin-non-susceptible Staphylococcus aureus 5016 incubated anaerobically at 37 degC for 48 hrs by agar dilution method; details: Staphylococcus aureus, 5016, 48 h
Staphylococcus aureus [13] = assay: Antimicrobial activity against daptomycin-non-susceptible Staphylococcus aureus 5059 incubated anaerobically at 37 degC for 48 hrs by agar dilution method; details: Staphylococcus aureus, 5059, 48 h
Enterococcus faecium = assay: Potency index, ratio of MIC for daptomycin to MIC for test compound against Enterococcus faecium ATCC 6569 incubated anaerobically at 37 degC for 48 hrs by agar dilution method
Staphylococcus aureus [14] = assay: Potency index, ratio of MIC for daptomycin to MIC for test compound against daptomycin-non-susceptible Staphylococcus aureus 1326 incubated anaerobically at 37 degC for 48 hrs by agar dilution method
Clostridioides difficile [15] = assay: Potency index, ratio of MIC for daptomycin to MIC for test compound against daptomycin-resistant Clostridium difficile NAP1 incubated anaerobically at 37 degC for 48 hrs by agar dilution method
Staphylococcus aureus [16] = assay: Antimicrobial activity against daptomycin-non-susceptible Staphylococcus aureus 5060 incubated anaerobically at 37 degC for 48 hrs by agar dilution method; details: Staphylococcus aureus, 5060, 48 h
Staphylococcus aureus [17] = assay: Potency index, ratio of MIC for daptomycin to MIC for test compound against daptomycin-non-susceptible Staphylococcus aureus 5003 incubated anaerobically at 37 degC for 48 hrs by agar dilution method
Staphylococcus aureus [18] = assay: Potency index, ratio of MIC for daptomycin to MIC for test compound against daptomycin-non-susceptible Staphylococcus aureus 5060 incubated anaerobically at 37 degC for 48 hrs by agar dilution method
Staphylococcus aureus [19] = assay: Potency index, ratio of MIC for daptomycin to MIC for test compound against daptomycin-non-susceptible Staphylococcus aureus 5014 incubated anaerobically at 37 degC for 48 hrs by agar dilution method
Staphylococcus aureus [20] = assay: Potency index, ratio of MIC for daptomycin to MIC for test compound against daptomycin-non-susceptible Staphylococcus aureus 5017 incubated anaerobically at 37 degC for 48 hrs by agar dilution method
Staphylococcus aureus [21] = assay: Potency index, ratio of MIC for daptomycin to MIC for test compound against daptomycin-non-susceptible Staphylococcus aureus 42 incubated anaerobically at 37 degC for 48 hrs by agar dilution method
Staphylococcus aureus [22] = assay: Antimicrobial activity against daptomycin-non-susceptible Staphylococcus aureus 5030 incubated anaerobically at 37 degC for 48 hrs by agar dilution method; details: Staphylococcus aureus, 5030, 48 h
Staphylococcus aureus [23] = assay: Potency index, ratio of MIC for daptomycin to MIC for test compound against daptomycin-non-susceptible Staphylococcus aureus 5080 incubated anaerobically at 37 degC for 48 hrs by agar dilution method
Staphylococcus aureus [24] = assay: Antimicrobial activity against daptomycin-non-susceptible Staphylococcus aureus 5080 incubated anaerobically at 37 degC for 48 hrs by agar dilution method; details: Staphylococcus aureus, 5080, 48 h
Staphylococcus aureus [25] = assay: Potency index, ratio of MIC for daptomycin to MIC for test compound against daptomycin-non-susceptible Staphylococcus aureus 5059 incubated anaerobically at 37 degC for 48 hrs by agar dilution method
Staphylococcus aureus [26] = assay: Potency index, ratio of MIC for daptomycin to MIC for test compound against daptomycin-non-susceptible Staphylococcus aureus 5012 incubated anaerobically at 37 degC for 48 hrs by agar dilution method
Staphylococcus aureus [27] = assay: Antimicrobial activity against daptomycin-non-susceptible Staphylococcus aureus 5076 incubated anaerobically at 37 degC for 48 hrs by agar dilution method; details: Staphylococcus aureus, 5076, 48 h
Staphylococcus aureus [28] = assay: Antimicrobial activity against daptomycin-non-susceptible Staphylococcus aureus 399 incubated anaerobically at 37 degC for 48 hrs by agar dilution method; details: Staphylococcus aureus, 399, 48 h
Staphylococcus aureus [29] = assay: Potency index, ratio of MIC for daptomycin to MIC for test compound against daptomycin-non-susceptible Staphylococcus aureus 399 incubated anaerobically at 37 degC for 48 hrs by agar dilution method

CCCCCc1ccc(/C(C)=C/C(=O)N[C@@H](Cc2c[nH]c3ccccc23)C(=O)N[C@H](CC(N)=O)C(=O)N[C@@H](CC(=O)O)C(=O)N[C@@H]2C(=O)NCC(=O)N[C@@H](CCCN)C(=O)N[C@@H](CC(=O)O)C(=O)N[C@H](C)C(=O)N[C@@H](CC(=O)O)C(=O)NCC(=O)N[C@H](CO)C(=O)N[C@@H]([C@@H](C)CC(=O)O)C(=O)N[C@@H](CC(=O)c3ccccc3N)C(=O)O[C@@H]2C)cc1
0.25 µg/mL: MIC (Staphylococcus aureus [2]) | MIC (Staphylococcus aureus [4])
1 µg/mL: MIC (Staphylococcus aureus [5]) | MIC (Staphylococcus aureus [9]) | MIC (Staphylococcus aureus [13]) | MIC (Staphylococcus aureus [16]) | MIC (Staphylococcus aureus [22]) | MIC (Staphylococcus aureus [24])
>8: Ratio (Enterococcus faecium)
0.125 µg/mL: MIC (Staphylococcus aureus [1]) | MIC (Clostridioides difficile [11]) | MIC (Staphylococcus aureus [28])
≥ 8190 µg/mL: MIC (Prevotella sp.)
4: Ratio (Clostridioides difficile [15])
0.5 µg/mL: MIC (Clostridioides difficile [3]) | MIC (Staphylococcus aureus [12]) | MIC (Staphylococcus aureus [27])
2: Ratio (Staphylococcus aureus [6]) | Ratio (Staphylococcus aureus [7]) | Ratio (Staphylococcus aureus [8]) | Ratio (Staphylococcus aureus [10]) | Ratio (Staphylococcus aureus [14]) | Ratio (Staphylococcus aureus [17]) | Ratio (Staphylococcus aureus [18]) | Ratio (Staphylococcus aureus [19]) | Ratio (Staphylococcus aureus [20]) | Ratio (Staphylococcus aureus [21]) | Ratio (Staphylococcus aureus [23]) | Ratio (Staphylococcus aureus [25]) | Ratio (Staphylococcus aureus [26]) | Ratio (Staphylococcus aureus [29])
